According to patent US10017468B2, “Substituted pyrrolidines as G-protein coupled receptor 43 agonists” (Ogeda SA, priority 2009, dated 2018):

Test system: ob/ob mice
Assay: Oral glucose tolerance test (OGTT) in ob/ob mice
Type: in vivo
Settings: bi-daily 50 mg/kg during 28 days, AUC from -15 to 120 min
Method: Ob/ob or obese mice are leptin-deficient mice that eat excessively and become profoundly obese, hyperinsulinemic and hyperglycemic. It is an animal model of type II diabetes. Such model can be used for oral glucose tolerance tests (OGTTs). A total of sixteen (16) male ob/ob mice (6 weeks of age) were obtained from Harlan. Upon arrival to the animal unit, mice were housed 4 per cage in rodent cages mounted with feeders containing regular chow. The mice were put in a 12/12 h light-dark cycle (light from 0600-1800 h) with controlled temperature conditions (22-24° C.). Fed blood glucose and body-weight was measured on day −2 in the morning between 08:00 AM and 09:00 AM. Animals were randomized into 2 groups according to fed glucose levels (on day −2). […]
Day 1 is the first day of dosing. […] At −15 min, blood glucose was measured (using a glucose analyzer) and animals were dosed with compounds of the invention or vehicle. At time point 0, blood glucose was measured again and glucose was administered by oral gavage (1 g/kg glucose). The blood glucose was then measured at time points 15, 30, 45, 60 and 120 minutes. […] The percentages of AUC inhibition induced by compounds of the invention were calculated as follows: % of AUC inhibition: [1−(AUC compound/AUC vehicule)]*100.

In the case of `COc1ccccc1-c1ccc(C(=O)N2[C@@H](c3ccccc3Cl)CC[C@H]2C(=O)O)cc1` [Compound 1, (2S,5R)-5-(2-chlorophenyl)-1-(2′-methoxy-[1,1′-biphenyl]-4-carbonyl)pyrrolidine-2-carboxylic acid], the “% of AUC inhibition (blood glucose, OGTT)” value is reported as 40%.
